Target: human STAT6 (Homo sapiens (Human), UniProt P42226)
Test: Surface plasmon resonance assay (Biacore 8K, binding to immobilized STAT6)
Conditions: human STAT6 aa122-658, N-terminal His-tag, CM5 chip, 25° C.; geometric mean; read-out: STAT6 SPR Kd
Description: Biacore instruments from the 8K-series (Cytiva) were used, and measurements were performed at 25° C. Human STAT6 (truncated, aa122-658, with N-terminal His-tag, expressed in insect cells) was immobilized in the active flow cells on a CM5 chip using amine-coupling (default settings) at 10 μg/ml in 10 mM acetate buffer pH 5.5, at a contact time of 120-420 sec. and a flow rate of 10 μl/min. Reference flow cells were deactivated using blank immobilization. PBS-P+ (Cytiva) supplemented with 2% DMSO was used as running buffer, and solvent correction was applied. Compounds were tested by multi-cycle kinetics injections using a contact time of 60 sec., dissociation time of up to 300 sec., and a flow rate of 30 μl/min.
Solvent-corrected, reference-subtracted and blank-corrected data was processed and binding isotherms were fitted according to a single report point from each sensorgram (Standard: Late binding (5 sec. before injection end); alternative: Earlier report point according to binding profile). Data fitting was done both with unfixed Rmax and with Rmax fixed to the theoretical value* assuming 1:1 binding to allow processing of data from both weak and strong binders as well as to evaluate binding stoichiometry.
Positive controls were run at the beginning, during, and at the end of the screen to evaluate surface activity.

Chain of human STAT6 (P42226 122-658): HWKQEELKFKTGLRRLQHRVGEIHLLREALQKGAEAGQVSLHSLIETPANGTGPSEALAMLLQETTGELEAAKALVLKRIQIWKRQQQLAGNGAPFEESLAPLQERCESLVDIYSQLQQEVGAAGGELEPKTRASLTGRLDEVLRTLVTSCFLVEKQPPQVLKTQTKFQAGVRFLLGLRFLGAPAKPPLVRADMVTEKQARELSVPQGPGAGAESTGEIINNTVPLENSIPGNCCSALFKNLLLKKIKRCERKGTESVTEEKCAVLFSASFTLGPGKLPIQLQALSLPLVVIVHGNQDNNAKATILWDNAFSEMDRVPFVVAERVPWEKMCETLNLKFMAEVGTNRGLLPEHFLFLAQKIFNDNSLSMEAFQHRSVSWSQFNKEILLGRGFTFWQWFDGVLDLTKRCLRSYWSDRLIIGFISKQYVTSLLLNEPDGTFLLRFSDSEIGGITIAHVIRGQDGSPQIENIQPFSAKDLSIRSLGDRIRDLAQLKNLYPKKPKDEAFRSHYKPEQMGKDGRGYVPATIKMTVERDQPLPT

Structure (SMILES)	Kd [nM]
CN(C)C(=O)c1ccc(C2CCN(Cc3cc4c(-c5ccc(N)nc5C(F)(F)F)ccnc4n3C)CC2)cc1 [Example 1k17, 4-[1-[[4-[6-Amino-2-(trifluoromethyl)-3-pyridyl]-1-methyl-pyrrolo[2,3-b]pyridin-2-yl]methyl]-4-piperidyl]-N,N-dimethyl-benzamide]	212
CN(C)C(=O)c1ccc(C2CCN(Cc3cc4c(-c5ccc(N)nc5OC(F)(F)F)ccnc4n3C)CC2)cc1 [Example 1k18, 4-[1-[[4-[6-Amino-2-(trifluoromethoxy)-3-pyridyl]-1-methyl-pyrrolo[2,3-b]pyridin-2-yl]methyl]-4-piperidyl]-N,N-dimethyl-benzamide]	153
COc1c(N)ncc(-c2ccnc3c2cc(CN2CCC(c4ccc(C(=O)N(C)C)cc4)CC2)n3C)c1C [Example 1k19, 4-[1-[[4-(6-Amino-5-methoxy-4-methyl-3-pyridyl)-1-methyl-pyrrolo[2,3-b]pyridin-2-yl]methyl]-4-piperidyl]-N,N-dimethyl-benzamide]	738
Cc1nc(-c2ccnc3c2cc(CN2CCC(c4ccc(C(=O)N(C)C)cc4)CC2)n3C)cnc1N [Example 1k20, 4-[1-[[4-(5-Amino-6-methyl-pyrazin-2-yl)-1-methyl-pyrrolo[2,3-b]pyridin-2-yl]methyl]-4-piperidyl]-N,N-dimethyl-benzamide]	1510
CN(C)C(=O)c1ccc(C2CCN(Cc3cc4c(-c5cnc(N)c(C#N)c5)ccnc4n3C)CC2)cc1 [Example 1k21, 4-[1-[[4-(6-Amino-5-cyano-3-pyridyl)-1-methyl-pyrrolo[2,3-b]pyridin-2-yl]methyl]-4-piperidyl]-N,N-dimethyl-benzamide]	935
[2H]C([2H])([2H])N(C(=O)c1ccc(C2CCN(Cc3cc4c(-c5ccc(N)nc5OC)ccnc4n3C)CC2)cc1)C([2H])([2H])[2H] [Example 1k23, 4-[1-[[4-(6-Amino-2-methoxy-3-pyridyl)-1-methyl-pyrrolo[2,3-b]pyridin-2-yl]methyl]-4-piperidyl]-N,N-bis(trideuteriomethyl)benzamide]	25.5
CN(C)C(=O)c1ccc(C2CCN(Cc3cc4c(-c5cnc(N)c(C(F)F)c5)ccnc4n3C)CC2)cc1 [Example 1k24, 4-[1-[[4-[6-Amino-5-(difluoromethyl)-3-pyridyl]-1-methyl-pyrrolo[2,3-b]pyridin-2-yl]methyl]-4-piperidyl]-N,N-dimethyl-benzamide]	336
CN(C)C(=O)c1ccc(C2CCN(Cc3cc4c(-c5cnc(N)c(S(C)(=O)=O)c5)ccnc4n3C)CC2)cc1 [Example 1k25, 4-[1-[[4-(6-Amino-5-methylsulfonyl-3-pyridyl)-1-methyl-pyrrolo[2,3-b]pyridin-2-yl]methyl]-4-piperidyl]-N,N-dimethyl-benzamide]	6050
COC(=O)CNc1ccc(-c2ccnc3c2cc(CN2CCC(c4ccc(C(=O)N(C)C)cc4)CC2)n3C)cn1 [Example 1k26, Methyl 2-[[5-[2-[[4-[4-(dimethylcarbamoyl)phenyl]-1-piperidyl]methyl]-1-methyl-pyrrolo[2,3-b]pyridin-4-yl]-2-pyridyl]amino]acetate]	16.8
CN(C)C(=O)c1ccc(C2CCN(Cc3cc4c(-c5cnc(N)cc5C(F)(F)F)ccnc4n3C)CC2)cc1 [Example 1k27, 4-[1-[[4-[6-Amino-4-(trifluoromethyl)-3-pyridyl]-1-methyl-pyrrolo[2,3-b]pyridin-2-yl]methyl]-4-piperidyl]-N,N-dimethyl-benzamide]	5030
CC(=O)Nc1cc(C)c(-c2ccnc3c2cc(CN2CCC(c4ccc(C(=O)N(C)C)cc4)CC2)n3C)cn1 [Example 1k28, 4-[1-[[4-(6-Acetamido-4-methyl-3-pyridyl)-1-methyl-pyrrolo[2,3-b]pyridin-2-yl]methyl]-4-piperidyl]-N,N-dimethyl-benzamide]	428
Cc1cc(N)ncc1-c1ccnc2c1cc(CN1CCC(c3ccc(C(=O)N(C)C)cc3)CC1)n2C [Example 1k30, 4-[1-[[4-(6-Amino-4-methyl-3-pyridyl)-1-methyl-pyrrolo[2,3-b]pyridin-2-yl]methyl]-4-piperidyl]-N,N-dimethyl-benzamide]	62.1
Cc1cc(-c2ccnc3c2cc(CN2CCC(c4ccc(C(=O)N(C)C)cc4)CC2)n3C)c(C)nc1N [Example 1k31, 4-[1-[[4-(6-Amino-2,5-dimethyl-3-pyridyl)-1-methyl-pyrrolo[2,3-b]pyridin-2-yl]methyl]-4-piperidyl]-N,N-dimethyl-benzamide]	78.5
Cc1cc(N)cc(C)c1-c1ccnc2c1cc(CN1CCC(c3ccc(C(=O)N(C)C)cc3)CC1)n2C [Example 1k32, 4-[1-[[4-(4-Amino-2,6-dimethyl-phenyl)-1-methyl-pyrrolo[2,3-b]pyridin-2-yl]methyl]-4-piperidyl]-N,N-dimethyl-benzamide]	1230
COc1cc(-c2ccnc3c2cc(CN2CCC(c4ccc(C(=O)N(C)C)cc4)CC2)n3C)c(C)nc1N [Example 1k33, 4-[1-[[4-(6-Amino-5-methoxy-2-methyl-3-pyridyl)-1-methyl-pyrrolo[2,3-b]pyridin-2-yl]methyl]-4-piperidyl]-N,N-dimethyl-benzamide]	2770
CN(C)C(=O)c1ccc(C2CCN(Cc3cc4c(-c5cnc(N)c(CO)c5)ccnc4n3C)CC2)cc1 [Example 1k34, 4-[1-[[4-[6-Amino-5-(hydroxymethyl)-3-pyridyl]-1-methyl-pyrrolo[2,3-b]pyridin-2-yl]methyl]-4-piperidyl]-N,N-dimethyl-benzamide]	245
CCOC(=O)c1nc(N)ccc1-c1ccnc2c1cc(CN1CCC(c3ccc(C(=O)N(C)C)cc3)CC1)n2C [Example 1k35, Ethyl 6-amino-3-[2-[[4-[4-(dimethylcarbamoyl)phenyl]-1-piperidyl]methyl]-1-methyl-pyrrolo[2,3-b]pyridin-4-yl]pyridine-2-carboxylate]	11
CN(C)C(=O)c1ccc(C2CCN(Cc3cc4c(-c5cnc(N)c(C(F)(F)F)c5)ccnc4n3C)CC2)cc1 [Example 1k36, 4-[1-[[4-[6-Amino-5-(trifluoromethyl)-3-pyridyl]-1-methyl-pyrrolo[2,3-b]pyridin-2-yl]methyl]-4-piperidyl]-N,N-dimethyl-benzamide]	1120
[2H]C([2H])([2H])N(C(=O)c1ccc(C2CCN(Cc3cc4c(-c5ccc(NC)nc5)ccnc4n3C)CC2)cc1)C([2H])([2H])[2H] [Example 1k38, 4-[1-[[1-Methyl-4-[6-(methylamino)-3-pyridyl]pyrrolo[2,3-b]pyridin-2-yl]methyl]-4-piperidyl]-N,N-bis(trideuteriomethyl)benzamide]	27.7
Cc1nc(N)cnc1-c1ccnc2c1cc(CN1CCC(c3ccc(C(=O)N(C)C)cc3)CC1)n2C [Example 1k39, 4-[1-[[4-(5-Amino-3-methyl-pyrazin-2-yl)-1-methyl-pyrrolo[2,3-b]pyridin-2-yl]methyl]-4-piperidyl]-N,N-dimethyl-benzamide]	2280
CC(=O)Nc1ccc(-c2ccnc3c2cc(CN2CCC(c4ccc(C(=O)N(C)C)cc4)CC2)n3C)c(C)n1 [Example 1k40, 4-[1-[[4-(6-Acetamido-2-methyl-3-pyridyl)-1-methyl-pyrrolo[2,3-b]pyridin-2-yl]methyl]-4-piperidyl]-N,N-dimethyl-benzamide]	475
CN(C)C(=O)c1ccc(C2CCN(Cc3cc4c(-c5cnc(N)nc5C#N)ccnc4n3C)CC2)cc1 [Example 1k41, 4-[1-[[4-(2-Amino-4-cyano-pyrimidin-5-yl)-1-methyl-pyrrolo[2,3-b]pyridin-2-yl]methyl]-4-piperidyl]-N,N-dimethyl-benzamide]	188
Cc1c(-c2ccnc3c2cc(CN2CCC(c4ccc(C(=O)N(C)C)cc4)CC2)n3C)cnc(N)c1C#N [Example 1k42, 4-[1-[[4-(6-Amino-5-cyano-4-methyl-3-pyridyl)-1-methyl-pyrrolo[2,3-b]pyridin-2-yl]methyl]-4-piperidyl]-N,N-dimethyl-benzamide]	731
[2H]C([2H])([2H])n1c(CN2CCC(c3ccc(C(=O)N(C)C)cc3)CC2)cc2c(-c3ccc(N)nc3C#N)ccnc21 [Example 1k45, 4-[1-[[4-(6-Amino-2-cyano-3-pyridyl)-1-(trideuteriomethyl)pyrrolo[2,3-b]pyridin-2-yl]methyl]-4-piperidyl]-N,N-dimethyl-benzamide]	27.7
CN(C)C(=O)c1ccc(C2CCN(Cc3cc4c(-c5cnc(N)c(N(C)C)c5)ccnc4n3C)CC2)cc1 [Example 1k47, 4-[1-[[4-[6-Amino-5-(dimethylamino)-3-pyridyl]-1-methyl-pyrrolo[2,3-b]pyridin-2-yl]methyl]-4-piperidyl]-N,N-dimethyl-benzamide]	1210
CN(C)C(=O)c1ccc(C2CCN(Cc3cc4c(-c5cnc(N)c(OC(F)(F)F)c5)ccnc4n3C)CC2)cc1 [Example 1k48, 4-[1-[[4-[6-Amino-5-(trifluoromethoxy)-3-pyridyl]-1-methyl-pyrrolo[2,3-b]pyridin-2-yl]methyl]-4-piperidyl]-N,N-dimethyl-benzamide]	8230
CN(C)C(=O)c1ccc(C2CCN(Cc3cc4c(-c5cnc(N)cc5CO)ccnc4n3C)CC2)cc1 [Example 1k49, 4-[1-[[4-[6-Amino-4-(hydroxymethyl)-3-pyridyl]-1-methyl-pyrrolo[2,3-b]pyridin-2-yl]methyl]-4-piperidyl]-N,N-dimethyl-benzamide]	148

— patent US20250340551A1, “SMALL MOLECULE MODULATORS OF STAT6” (Gilead Sciences, Inc., priority 2024, published 2025)
